US8663647B2, “Epitope peptides derived from vascular endothelial growth factor receptor 1 and vaccines containing these peptides” (Oncotherapy Science, Inc., priority 2005, dated 2014)
Entries after “also recorded” stand apart in the source; their conditions may differ.

Key:
[1] = test system: T2 cells and A24-LCL pulsed with candidate peptides; assay: CTL induction with peptide-pulsed DCs and 4-h 51Cr-release cytotoxicity assay on peptide-pulsed target cells; format: cell-based; details: human PBMC-derived DCs pulsed with peptide, autologous CD8+ T cells
Source text: Monocyte-derived dendritic cells (DCs) were used to induce CTL responses against peptides presented on HLA as previously described (Nukaya et al., (1999) Int. J. Cancer. 80: 92-7, Tsai et al., (1997) J. Immunol. 158: 1796-802, Nakahara et al., (2003) Cancer Res. 63: 4112-8). In brief, the PBMCs were obtained from the healthy volunteers with corresponding HLAs and cultured in the presence of GM-CSF (provided by Kirin Brewery Company, Japan) and IL-4 (Genzyme/Techne, Minneapolis). After culture for 5 days, OK-432 (Chugai Pharmaceutical Corporation, Japan) was added to the culture to obtain mature DCs (Nakahara et al., (2003) Cancer Res. 63: 4112-8). On day 7, generated mature DCs were pulsed with each peptide for T cell stimulation. Using these peptide-pulsed DCs each time, the autologous CD8+ T cells were stimulated for three times on day 0, 7 and 14, and then the resultant lymphoid cells were tested for their cytotoxic activities on day 21. To generate CTL clones, established CTL lines were plated in 96-well plates at 0.3, 1, and 3 cells per well with allogenic PBMCs and […] as stimulator cells. Cytotoxic activities of resulting CTL clones were tested on the 14th day. Cytotoxic activities were measured using a standard 4-h ^51Cr-release assay. The T2 cells and A24-LCL were used as target cells pulsed with candidate peptides. Percent specific lysis was calculated as follows: % Specific lysis=[(experimental release−spontaneous release)/(maximum release−spontaneous release)]×100. Immunogenicity of Epitope Peptides in A2/Kb TGM

[2] = test system: IFN-γ production of CTLs against T2 cells pulsed with peptides; assay: IFN-γ ELISPOT assay, immunogenicity of epitope peptides in A2/Kb TGM; format: in vivo, A2/Kb transgenic mice; details: IFA-conjugated peptide injected day 0 and day 11; splenocytes day 21; E/T ratio x20
Procedure: For priming the peptide-specific CTLs, immunization was given using 200 μl of vaccine mixture, which contains 100 μg of an HLA-A2 restricted peptide and 100 μl of IFA per mouse. The vaccine was injected intradermally in the right flank for the first immunization on day 0 and in the other flank for the second on day 11. On day 21, splenocytes of the vaccinated mice were used as the responder cells, and T2 cells pulsed with or without peptides were used as the stimulator cells for ELISPOT assay.
At first, we evaluated the immunogenicity of the epitope peptides for A2/Kb TGM to examine the specific production of IFN-γ of the CTLs induced with these peptides by ELISPOT assay (FIG. 4). IFA-conjugated peptide was injected s.c. into A2/Kb TGM on day 0 and day 11. On day 21, splenocytes of the vaccinated mice were harvested and used as the responder cells, and T2 cells pulsed with or without peptides were used as the stimulator cells for ELISPOT assay. […] In this ELISPOT assay using A2/Kb TGM system, positive results were shown for the epitope peptides identified using human PBMCs.

[3] = test system: angiogenesis induced by MC38 cells; assay: Dorsal air sac (DAS) in vivo angiogenesis assay; set-up: species or system A2/Kb transgenic mice; details: vaccinated twice with IFA-conjugated peptide, MC38 chamber, semiquantitative
Source text: We examined the effects of peptide vaccination using dorsal air sac (DAS) assay which was designed to measure in vivo angiogenesis induced by tumor cells as previously described (Oikawa et al., (1997) Anticancer Res. 17: 1881-6). In brief, the A2/Kb TGM were vaccinated twice with 1-week interval in the left flank using IFA conjugated corresponding peptides as previously described with some modification (Schuler et al., (1997) J. Exp. Med. 186: 1183-7, Song et al., (1997) J. Exp. Med. 186: 1247-56, Specht et al., (1997) J. Exp. Med. 186: 1213-21). Millipore chamber (Millipore Corporation, Bedford, Mass.) was filled with PBS containing MC38 cells (1×10^6 cells) and implanted in the dorsum of anesthetized mice on day 0. The implanted chambers were removed from s.c. fascia on day 6 and then black rings were placed at the sites exposed to a direct contact with the chamber. The angiogenic response was assessed with photographs taken using a dissecting microscope. The extent of angiogenesis was determined with the number of newly formed blood vessels of >3 mm in length and scored semi quantitatively using an index ranging from 0 (none) to 5 (many).

MCA205 cells = assay: In vivo anti-tumor effects, therapeutic model; set-up: species or system A2/Kb transgenic mice; details: MCA205 i.d. day 0; vaccination with IFA-conjugated peptide after tumor challenge
Procedure: We examined the anti-tumor effects of this vaccination with a therapeutic model. The 1×10^5 MCA205 cells or the 5×10^5 B16 cells were injected i.d. in the right flank on day 0, and vaccination was performed on day 4 and day 14 using IFA conjugated corresponding peptides. […] The MCA205, a methylcholanthrene-induced murine fibrosarcoma cell line were injected i.d. into A2/Kb TGM on day 0, and vaccination was performed on these mice on 4 and 14 days after the tumor challenge using VEGFR1-1087, -770, -417 peptides conjugated with IFA (FIG. 6).

Sequence: NLTATLIVNV (synthetic vascular endothelial growth factor receptor 1 (VEGFR1, Flt-1) epitope peptide binding HLA-A*0201 with high cytotoxic T lymphocyte (CTL) inducibility) [SEQ ID NO: 13]
- CTL inducibility [1]: particularly high CTL inducibility
- Specific production of IFN-γ for the corresponding peptide [2]: Specific production of IFN-γ for the corresponding peptide was observed
- Inhibition of tumor-induced angiogenesis (newly formed vessels) ([3]; listed as VEGFR1-417): significant inhibition on angiogenesis was observed; also recorded: Significant inhibition of tumor-induced angiogenesis was observed

Sequence: SYGVLLWEIF (synthetic vascular endothelial growth factor receptor 1 (VEGFR1, Flt-1) epitope peptide binding HLA-A*2402 with high cytotoxic T lymphocyte (CTL) inducibility) [SEQ ID NO: 32]
- CTL inducibility [1]: particularly high CTL inducibility

Sequence: TLFWLLLTL (synthetic vascular endothelial growth factor receptor 1 (VEGFR1, Flt-1) epitope peptide binding HLA-A*0201 with high cytotoxic T lymphocyte (CTL) inducibility) [SEQ ID NO: 2]
- CTL inducibility [1]: particularly high CTL inducibility
- Specific production of IFN-γ for the corresponding peptide [2]: Specific production of IFN-γ for the corresponding peptide was observed
- Inhibition of tumor-induced angiogenesis (newly formed vessels) ([3]; listed as VEGFR1-770): significant inhibition on angiogenesis was observed; also recorded: Significant inhibition of tumor-induced angiogenesis was observed
- Suppression of tumor growth (MCA205 cells): Significant suppression of tumor growth was observed

Sequence: VLLWEIFSL (synthetic vascular endothelial growth factor receptor 1 (VEGFR1, Flt-1) epitope peptide binding HLA-A*0201 with high cytotoxic T lymphocyte (CTL) inducibility) [SEQ ID NO: 1]
- CTL inducibility [1]: particularly high CTL inducibility
- Specific production of IFN-γ for the corresponding peptide [2]: Specific production of IFN-γ for the corresponding peptide was observed
- Inhibition of tumor-induced angiogenesis (newly formed vessels) ([3]; listed as VEGFR1-1087): significant inhibition on angiogenesis was observed; also recorded: Significant inhibition of tumor-induced angiogenesis was observed
- Suppression of tumor growth (MCA205 cells): Significant suppression of tumor growth was observed
